The text below walks through data of ChEMBL document CHEMBL4311992, “Discovery of 3-(((9H-purin-6-yl)amino)methyl)-4,6-dimethylpyridin-2(1H)-one derivatives as novel tubulin polymerization inhibitors for treatment of cancer” (Eur J Med Chem, 2019).

Data set [1] concerns HCT-116. Kind of data set: Induction of apoptosis in human HCT116 cells assessed as late apoptotic cells at 50 nM measured after 48 hrs by Annexin V-FITC/propidium iodide staining-based flow cytometry (reference value: 3.87%). The data set is classed as functional.
In data set [2] the target is Serine/threonine-protein kinase 35 (Homo sapiens) (UniProt Q8TDR2). Kind of data set: Inhibition of recombinant full length human CLIK1 assessed as residual activity at 10 uM using RSRSRSRSRSRSRSR as substrate measured after 40 mins in presence of [gamma33P]ATP by scintillation counting method.
The species entered for data set [3] is Homo sapiens. The data set can be described thus: Inhibition of recombinant full-length human JNK2alpha2 S51N mutant assessed as residual activity at 10 uM using ATF2 as substrate measured after 40 mins in presence of [gamma33P]ATP by scintillation counting method.
The subject of data set [4] is Protein kinase C eta type (Homo sapiens), P24723 [UNDEFINED MUTATION]. The data set can be described thus: Inhibition of recombinant human PKCeta V108L/G109R/L392Q mutant (2 to end residues) assessed as residual activity at 10 uM using ERMRPRKRQGSVRRRV as substrate measured after 40 mins in presence of [gamma33P]ATP by scintillation counting method.
For data set [5], the target named is Calcium/calmodulin-dependent protein kinase type II subunit alpha (Homo sapiens) (UniProt Q9UQM7). Kind of data set: Inhibition of recombinant full-length human CaMK2alpha assessed as residual activity at 10 uM using calmodulin as substrate measured after 40 mins in presence of [gamma33P]ATP by scintillation counting method.
Data set [6] deals with Transient receptor potential cation channel subfamily M member 7 (Homo sapiens) (UniProt Q96QT4). The data set can be described thus: Inhibition of recombinant human CHAK1 (1180 to end residues) assessed as residual activity at 10 uM using myelin basic protein as substrate measured after 40 mins in presence of [gamma33P]ATP by scintillation counting method.
The species entered for data set [7] is Mus musculus. The data set can be described thus: Inhibition of recombinant full-length mouse PI3K p110alpha/p85alpha E545K mutant assessed as residual activity at 10 uM using phosphatidylinositol-4, 5-bisphosphate as substrate measured after 40 mins by HTRF assay. (In general: In TR-FRET formats the signal depends on donor and acceptor labels being close together.)

The target of data set [8] is Leucine-rich repeat serine/threonine-protein kinase 2 (Homo sapiens) (UniProt Q5S007). Kind of data set: Inhibition of recombinant human LRRK2 (970 to end residues) assessed as residual activity at 10 uM using RLGRDKYKTLRQIRQ as substrate measured after 40 mins in presence of [gamma33P]ATP by scintillation counting method.
Sequence of Leucine-rich repeat serine/threonine-protein kinase 2 (Homo sapiens) (Q5S007 whole entry): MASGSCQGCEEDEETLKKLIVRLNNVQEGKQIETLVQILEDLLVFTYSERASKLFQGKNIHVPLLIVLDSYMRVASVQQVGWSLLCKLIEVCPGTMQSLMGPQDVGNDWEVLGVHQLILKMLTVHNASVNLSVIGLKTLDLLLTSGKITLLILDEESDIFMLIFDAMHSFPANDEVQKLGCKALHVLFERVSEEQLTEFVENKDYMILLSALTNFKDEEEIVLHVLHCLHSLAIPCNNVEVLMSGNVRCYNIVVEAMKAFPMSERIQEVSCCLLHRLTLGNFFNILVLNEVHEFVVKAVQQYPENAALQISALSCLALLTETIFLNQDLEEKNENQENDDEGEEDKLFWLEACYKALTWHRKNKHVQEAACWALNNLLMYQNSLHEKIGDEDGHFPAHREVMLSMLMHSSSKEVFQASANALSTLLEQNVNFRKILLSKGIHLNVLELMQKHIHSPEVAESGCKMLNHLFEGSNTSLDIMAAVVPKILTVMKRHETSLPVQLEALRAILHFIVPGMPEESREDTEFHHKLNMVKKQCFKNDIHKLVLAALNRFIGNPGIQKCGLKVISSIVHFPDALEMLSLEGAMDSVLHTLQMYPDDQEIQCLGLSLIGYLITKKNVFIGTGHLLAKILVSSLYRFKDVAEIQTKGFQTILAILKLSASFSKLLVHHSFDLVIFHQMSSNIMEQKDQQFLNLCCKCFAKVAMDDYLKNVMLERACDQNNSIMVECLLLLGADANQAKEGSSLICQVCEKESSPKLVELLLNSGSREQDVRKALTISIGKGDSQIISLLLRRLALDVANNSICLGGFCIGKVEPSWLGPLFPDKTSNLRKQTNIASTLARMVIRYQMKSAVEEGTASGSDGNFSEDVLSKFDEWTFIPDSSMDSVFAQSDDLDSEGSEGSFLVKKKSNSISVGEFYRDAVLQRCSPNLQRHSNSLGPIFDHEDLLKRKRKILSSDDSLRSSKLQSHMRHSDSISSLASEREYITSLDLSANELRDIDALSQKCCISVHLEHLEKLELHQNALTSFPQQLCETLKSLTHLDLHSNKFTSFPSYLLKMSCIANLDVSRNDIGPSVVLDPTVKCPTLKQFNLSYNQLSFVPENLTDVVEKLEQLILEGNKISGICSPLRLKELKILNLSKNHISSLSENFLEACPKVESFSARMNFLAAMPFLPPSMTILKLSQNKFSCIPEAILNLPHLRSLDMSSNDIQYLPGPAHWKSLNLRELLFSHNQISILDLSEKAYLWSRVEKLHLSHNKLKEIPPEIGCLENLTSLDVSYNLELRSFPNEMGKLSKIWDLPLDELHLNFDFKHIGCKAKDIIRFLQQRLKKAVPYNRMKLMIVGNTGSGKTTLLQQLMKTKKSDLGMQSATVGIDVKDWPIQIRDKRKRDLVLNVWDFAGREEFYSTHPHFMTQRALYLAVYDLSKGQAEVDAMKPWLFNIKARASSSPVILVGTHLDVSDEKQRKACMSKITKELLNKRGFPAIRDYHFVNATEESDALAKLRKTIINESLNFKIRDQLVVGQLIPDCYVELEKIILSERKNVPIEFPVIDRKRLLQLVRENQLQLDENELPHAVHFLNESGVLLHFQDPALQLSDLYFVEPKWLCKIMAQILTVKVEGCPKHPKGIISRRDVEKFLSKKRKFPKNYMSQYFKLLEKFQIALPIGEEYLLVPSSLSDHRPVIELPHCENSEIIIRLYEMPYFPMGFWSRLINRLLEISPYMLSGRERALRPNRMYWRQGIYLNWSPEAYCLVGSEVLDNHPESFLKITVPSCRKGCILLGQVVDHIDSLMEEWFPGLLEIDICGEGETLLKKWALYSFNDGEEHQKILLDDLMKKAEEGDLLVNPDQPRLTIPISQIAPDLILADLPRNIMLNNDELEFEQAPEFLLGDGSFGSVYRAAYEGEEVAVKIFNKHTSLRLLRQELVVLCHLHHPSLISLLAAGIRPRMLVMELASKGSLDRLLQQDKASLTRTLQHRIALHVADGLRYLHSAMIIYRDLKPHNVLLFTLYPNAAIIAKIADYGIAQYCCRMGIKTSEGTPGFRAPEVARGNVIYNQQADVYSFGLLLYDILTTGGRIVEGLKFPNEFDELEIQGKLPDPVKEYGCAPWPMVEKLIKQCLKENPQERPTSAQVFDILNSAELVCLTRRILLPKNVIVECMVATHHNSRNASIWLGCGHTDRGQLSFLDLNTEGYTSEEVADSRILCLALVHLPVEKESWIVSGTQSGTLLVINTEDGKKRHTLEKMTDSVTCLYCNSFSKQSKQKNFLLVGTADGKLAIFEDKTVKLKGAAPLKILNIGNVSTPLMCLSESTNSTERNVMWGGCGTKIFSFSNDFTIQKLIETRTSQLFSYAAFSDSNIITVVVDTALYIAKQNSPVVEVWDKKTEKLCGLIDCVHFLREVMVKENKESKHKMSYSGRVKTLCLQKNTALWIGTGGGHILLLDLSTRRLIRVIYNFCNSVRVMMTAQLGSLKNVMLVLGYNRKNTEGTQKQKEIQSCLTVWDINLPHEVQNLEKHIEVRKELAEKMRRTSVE
For data set [9], the target named is Serine/threonine-protein kinase Sgk3 (Homo sapiens) (UniProt Q96BR1). Kind of data set: Inhibition of human SGK3 (119 to end residues) using GRPRTSSFAEGKK as substrate measured after 40 mins in presence of [gamma33P]ATP by scintillation counting method. More on the design: scale not given: the % may be the effect or the level left.
Sequence of Serine/threonine-protein kinase Sgk3 (Homo sapiens) (Q96BR1 whole entry): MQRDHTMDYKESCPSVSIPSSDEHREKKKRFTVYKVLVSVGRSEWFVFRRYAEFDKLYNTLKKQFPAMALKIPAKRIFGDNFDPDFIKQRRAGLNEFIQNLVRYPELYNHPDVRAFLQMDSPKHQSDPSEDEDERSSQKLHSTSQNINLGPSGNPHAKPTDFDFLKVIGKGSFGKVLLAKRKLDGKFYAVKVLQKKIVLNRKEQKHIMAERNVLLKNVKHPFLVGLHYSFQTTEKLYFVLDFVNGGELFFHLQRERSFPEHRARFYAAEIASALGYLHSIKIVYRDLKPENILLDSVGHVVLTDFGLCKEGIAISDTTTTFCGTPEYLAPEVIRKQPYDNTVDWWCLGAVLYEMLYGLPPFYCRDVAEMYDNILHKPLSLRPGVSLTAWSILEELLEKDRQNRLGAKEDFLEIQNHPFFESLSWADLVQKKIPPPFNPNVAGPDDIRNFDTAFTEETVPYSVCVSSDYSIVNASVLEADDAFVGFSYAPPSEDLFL
Data set [10] is described as follows: Toxicity in nude BALB/c mouse assessed as change in platelet level at 40 to 80 mg/kg, po once daily for 4 weeks measured post-last dose. Particulars: in vivo, 672 h. The data set is classed as organism-based.
For data set [11], the system named is HCT-116. The data set can be described thus: Induction of apoptosis in human HCT116 cells assessed as necrotic cells at 50 nM measured after 48 hrs by Annexin V-FITC/propidium iodide staining-based flow cytometry (reference value: 1.16%). Type of data set: functional.
Data set [12] deals with Serine/threonine-protein kinase Chk2 (Homo sapiens) (UniProt O96017). Kind of data set: Inhibition of recombinant human CHK2 (5 to end residues) assessed as residual activity at 10 uM using KKKVSRSGLYRSPSMPENLNRPR as substrate measured after 40 mins in presence of [gamma33P]ATP by scintillation counting method.
Data set [13] deals with Vascular endothelial growth factor receptor 1 (Homo sapiens) (UniProt P17948). Kind of data set: Inhibition of recombinant human Flt1 (783 to end residues) assessed as residual activity at 10 uM using KKKSPGEYVNIEFG as substrate measured after 40 mins in presence of [gamma33P]ATP by scintillation counting method.
Sequence of Vascular endothelial growth factor receptor 1 (Homo sapiens) (P17948 whole entry, the tested form may be a part, canonical isoform): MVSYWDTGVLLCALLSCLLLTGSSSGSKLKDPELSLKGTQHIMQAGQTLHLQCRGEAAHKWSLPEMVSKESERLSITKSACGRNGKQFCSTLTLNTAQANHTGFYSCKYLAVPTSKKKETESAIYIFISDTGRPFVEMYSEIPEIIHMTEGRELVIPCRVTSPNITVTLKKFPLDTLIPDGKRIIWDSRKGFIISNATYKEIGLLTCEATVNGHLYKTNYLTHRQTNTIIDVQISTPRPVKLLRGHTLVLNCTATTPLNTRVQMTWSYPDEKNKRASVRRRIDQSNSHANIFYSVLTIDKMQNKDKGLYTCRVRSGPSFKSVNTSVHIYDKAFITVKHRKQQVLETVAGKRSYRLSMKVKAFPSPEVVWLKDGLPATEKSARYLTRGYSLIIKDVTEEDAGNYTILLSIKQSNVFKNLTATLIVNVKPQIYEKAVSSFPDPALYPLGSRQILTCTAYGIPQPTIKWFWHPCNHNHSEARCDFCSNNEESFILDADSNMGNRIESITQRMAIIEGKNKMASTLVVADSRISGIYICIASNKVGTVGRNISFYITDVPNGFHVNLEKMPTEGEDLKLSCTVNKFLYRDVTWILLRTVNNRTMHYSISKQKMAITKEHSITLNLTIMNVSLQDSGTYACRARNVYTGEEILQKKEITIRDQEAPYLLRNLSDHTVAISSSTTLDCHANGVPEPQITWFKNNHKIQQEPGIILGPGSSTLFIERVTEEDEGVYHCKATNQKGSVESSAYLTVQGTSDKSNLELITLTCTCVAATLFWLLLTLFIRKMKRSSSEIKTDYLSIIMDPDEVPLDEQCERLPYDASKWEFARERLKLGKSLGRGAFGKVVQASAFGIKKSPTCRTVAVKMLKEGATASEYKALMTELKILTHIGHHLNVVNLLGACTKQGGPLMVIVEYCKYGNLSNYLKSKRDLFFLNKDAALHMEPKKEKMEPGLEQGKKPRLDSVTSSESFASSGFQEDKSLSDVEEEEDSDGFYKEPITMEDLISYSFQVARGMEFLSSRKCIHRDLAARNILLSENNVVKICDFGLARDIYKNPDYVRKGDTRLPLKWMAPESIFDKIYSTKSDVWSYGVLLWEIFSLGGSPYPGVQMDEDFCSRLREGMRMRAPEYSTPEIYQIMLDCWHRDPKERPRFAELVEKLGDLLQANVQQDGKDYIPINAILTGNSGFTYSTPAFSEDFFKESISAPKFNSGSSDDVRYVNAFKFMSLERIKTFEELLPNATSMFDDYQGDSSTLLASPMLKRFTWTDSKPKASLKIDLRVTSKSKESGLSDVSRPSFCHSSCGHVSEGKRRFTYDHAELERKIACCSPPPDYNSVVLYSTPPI
The target of data set [14] is Casein kinase I isoform gamma-1 (Homo sapiens) (UniProt Q9HCP0). Kind of data set: Inhibition of recombinant human CK1gamma1 (25 to 355 residues) assessed as residual activity at 10 uM using KRRRALS(p)VASLPGL as substrate measured after 40 mins in presence of [gamma33P]ATP by scintillation counting method.
Data set [15] has as its target Dual specificity protein kinase CLK2 (Homo sapiens) (UniProt P49760). Kind of data set: Inhibition of recombinant human CLK2 (138 to end residues) assessed as residual activity at 10 uM using YRRAAVPPSPSLSRHSSPHQS(p)EDEEE as substrate measured after 40 mins in presence of [gamma33P]ATP by scintillation counting method.
Data set [16] is filed under the species Homo sapiens. The data set can be described thus: Inhibition of recombinant full-length human PKBalpha S478G mutant assessed as residual activity at 10 uM using GRPRTSSFAEGKK as substrate measured after 40 mins in presence of [gamma33P]ATP by scintillation counting method.
In a further data set the target is Tubulin (Homo sapiens) (UniProt P68371+Q9H4B7+P0DPH7+P68366+Q13509+Q71U36+P04350+Q3ZCM7+P07437+P68363+Q9BQE3+Q6PEY2+Q13885+Q9BVA1+Q9BUF5). Kind of data set: Disruption of microtubule network in human SW620 cells assessed as microtubule disorganization at 50 nM for 18 hrs by FITC/DAPI staining-based confocal microscopic analysis. Type of data set: cell-based.
Data set [17] addresses Mitogen-activated protein kinase kinase kinase kinase 2 (Homo sapiens) (UniProt Q12851). The data set can be described thus: Inhibition of recombinant human GCK assessed as residual activity at 10 uM using myelin basic protein as substrate measured after 40 mins in presence of [gamma33P]ATP by scintillation counting method.
Data set [18] deals with Misshapen-like kinase 1 (Homo sapiens) (UniProt Q8N4C8). Kind of data set: Inhibition of recombinant human MINK (1 to 310 residues) assessed as residual activity at 10 uM using myelin basic protein as substrate measured after 40 mins in presence of [gamma33P]ATP by scintillation counting method.
The target of data set [19] is Tyrosine-protein kinase TXK (Homo sapiens) (UniProt P42681). The data set can be described thus: Inhibition of human Txk (256 to end residues) using GEEPLYWSFPAKKK as substrate measured after 40 mins in presence of [gamma33P]ATP by scintillation counting method. More on the design: scale not given: the % may be the effect or the level left.
For data set [20], the species on record is Mus musculus. Kind of data set: Inhibition of recombinant full-length mouse PI3K p110alpha/p65alpha (1 to 571 residues) assessed as residual activity at 10 uM using phosphatidylinositol-4, 5-bisphosphate as substrate measured after 40 mins by HTRF assay.
Data set [21] concerns the target Maternal embryonic leucine zipper kinase (Homo sapiens) (UniProt Q14680). The data set can be described thus: Inhibition of recombinant human MELK (1 to 340 residues) assessed as residual activity at 10 uM using KKLNRTLSFAEPG as substrate measured after 40 mins in presence of [gamma33P]ATP by scintillation counting method.
Data set [22] has as its target CDK9/cyclin T1 (Homo sapiens) (UniProt O60563+P50750). Kind of data set: Inhibition of recombinant full length human CDK9/cyclinT1 assessed as residual activity at 10 uM using KTFCGTPEYLAPEVRREPRILSEEEQEMFRDFDYIADWC as substrate measured after 40 mins in presence of [gamma33P]ATP by scintillation counting method. Type of data set: protein-complex assay.

Active and inactive are the calls of the source. The rule behind the calls is not given here.

Sequence of Protein kinase C eta type (Homo sapiens), P24723 [UNDEFINED MUTATION] (P24723 whole entry, looked up, stated change not applied): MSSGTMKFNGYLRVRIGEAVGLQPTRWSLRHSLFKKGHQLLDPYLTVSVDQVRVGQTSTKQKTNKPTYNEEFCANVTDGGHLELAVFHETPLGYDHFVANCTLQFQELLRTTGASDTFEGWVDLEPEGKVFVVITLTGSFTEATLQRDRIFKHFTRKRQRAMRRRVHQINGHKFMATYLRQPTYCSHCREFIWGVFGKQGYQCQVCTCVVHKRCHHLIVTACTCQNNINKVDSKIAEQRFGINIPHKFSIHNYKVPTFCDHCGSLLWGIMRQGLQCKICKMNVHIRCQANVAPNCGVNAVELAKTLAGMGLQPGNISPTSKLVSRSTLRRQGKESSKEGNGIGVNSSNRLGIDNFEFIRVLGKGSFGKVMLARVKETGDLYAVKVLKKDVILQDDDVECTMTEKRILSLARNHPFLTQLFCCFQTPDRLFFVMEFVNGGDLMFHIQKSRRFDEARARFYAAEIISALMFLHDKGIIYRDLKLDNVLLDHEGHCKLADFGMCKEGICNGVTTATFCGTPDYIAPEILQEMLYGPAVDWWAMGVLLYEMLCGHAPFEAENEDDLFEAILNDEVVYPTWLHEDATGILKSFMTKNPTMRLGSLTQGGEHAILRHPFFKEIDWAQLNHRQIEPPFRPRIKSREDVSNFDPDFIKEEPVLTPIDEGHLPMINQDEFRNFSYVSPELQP

With `Cc1cc(C)c(CNc2nc(Cl)nc3c2ncn3C2CCCC2)c(=O)[nH]1`, the Activity with HCT-116 [1] was determined as 46.2%; in data set [2], 65.5%; in the data set filed under Homo sapiens [3], 103%; in [4], 98.5%; in data set [5] it was 92%; in data set [6], 108%. Also, the Activity was 99% in the data set filed under Mus musculus [7]; 100% in [8]; 102% in data set [9]; “Non-Toxic” in data set [10]; 7.59% with HCT-116 [11]; 105% in data set [12]. The Activity was determined as 97.5% in [13]; 94.5% in [14]; 132% in data set [15]; 105% in the data set listed under Homo sapiens [16]; 100% in data set [17]; 94% in data set [18]. Further, the Activity in [19] is 84%; in the data set listed under Mus musculus [20] it was 104%; in data set [21] it was 114%; in data set [22], 106%. For the same compound, at Tubulin (Homo sapiens), the result was Active.
